# According to patent US4994270A, “A54145 antibiotics and process for their production” (Eli Lilly and Company, priority 1988, dated 1991):
# Where “and” joins values, the source holds several entries; their conditions need not be identical. Identical values can stand only once. Positions of bridges follow the written chain, without caps; N, C: chain ends. Non-standard residues stand in square brackets, D forms with d. Residues, ends and D or L forms follow the SMILES beside them. ξ: configuration not given here. *: point of attachment. ξAsp(3ξ-OMe) = COC(C(=O)O)C(N)C(=O)O; ξAsn(3ξ-OH) = NC(=O)C(O)C(N)C(=O)O; X2 = CC(C)CCCCCCC(=O)*; Sar = CNCC(=O)O
# How the values were obtained:
# [1] = Chick growth performance test (weight gain, feed efficiency); type: in vivo, chicks
# Source text: In the tests, the compounds were given to chicks at the concentrations indicated in the feed. The test period was the 7-day period from 7-14 days of age of the birds. Growth performance (weight gain, feed consumption and feed efficiency) was compared to that of contemporary controls.
# [2] = test system: Staphylococcus epidermidis EPI1; experiment: MIC, conventional agar-dilution assay; type: cell-based
# Experimental: (§1) The A54145 antibiotics inhibit the growth of pathogenic bacteria. […] The MIC's in Table IX were determined by conventional agar-dilution assays.
# [3] = test system: Streptococcus pyogenes C203; experiment: MIC, conventional agar-dilution assay; type: cell-based
# Experimental: as §1
# [4] = test system: Streptococcus sp. group 2041; experiment: MIC, conventional agar-dilution assay; type: cell-based
# Experimental: as §1
# [5] = test system: Staphylococcus aureus X400; experiment: MIC, conventional agar-dilution assay; type: cell-based
# Experimental: as §1
# [6] = test system: Staphylococcus epidermidis 222; experiment: MIC, conventional agar-dilution assay; type: cell-based
# Experimental: as §1
# [7] = test system: Streptococcus sp. group D X66; experiment: MIC, conventional agar-dilution assay; type: cell-based
# Experimental: as §1
# [8] = test system: Staphylococcus aureus X1.1; experiment: MIC, conventional agar-dilution assay; type: cell-based
# Experimental: as §1
# [9] = test system: Streptococcus pneumoniae Park1; experiment: MIC, conventional agar-dilution assay; type: cell-based
# Experimental: as §1
# [10] = test system: Staphylococcus aureus V41; experiment: MIC, conventional agar-dilution assay; type: cell-based
# Experimental: as §1
# [11] = test system: Staphylococcus aureus S13E; experiment: MIC, conventional agar-dilution assay; type: cell-based
# Experimental: as §1
# [12] = test system: Staphylococcus aureus 209P; experiment: Stimulation of in vitro activity by calcium ions; type: cell-based; design: dose or concentration left out as unconfirmed
# Experimental: (§2) The in vitro activity of the A54145 antibiotics is stimulated by the presence of calcium ions. For example, the in vitro activity of A54145A against Staphylococcus aureus 209P and Streptococcus faecalis ATCC 29212 was stimulated about 100 times by the presence of Ca^++ ([…]).
# [13] = test system: Streptococcus faecalis ATCC 29212; experiment: Stimulation of in vitro activity by calcium ions; type: cell-based; design: dose or concentration left out as unconfirmed
# Experimental: as §2
# Staphylococcus aureus = experiment: ED50 in experimentally infected mice; type: in vivo; conditions: mice infected with Staphylococcus aureus; subcutaneous; doses given 1 and 4 hours postinfection
# Experimental: (§3) The A54145 antibiotics have shown in vivo antimicrobial activity against experimentally-induced infections in laboratory animals. When two doses of test compound were administered to mice experimentally infected with Streptococcus pyogenes or Staphylococcus aureus, the activity observed was measured as an ED50 value [effective dose in mg/kg to protect 50% of the test animals: see Warren Wick, et al. J. Bacteriol. 81 233-235 (1961)].
# Streptococcus pyogenes = experiment: ED50 in experimentally infected mice; type: in vivo; conditions: mice infected with Streptococcus pyogenes, subcutaneous
# Experimental: as §3
# [14] = Growth performance of starter pigs; type: in vivo
# Source text: In this test, a total of 145 barrows and gilts, averaging 22 pounds starting weight, were used to determine the effect of various dosages of A54145 on the growth performance of starter pigs. The pigs were fed an 18% crude protein corn-soy diet and were housed in a completely enclosed building with wire mesh floors elevated over a flush floor. The effect of the treatments on performance was studied for a 28-day trial period.
# [15] = Table XII, 20 g/ton, relative to the control mean
structure (smiles),measurement,setting,value
CCC(C)C1NC(=O)C(CCC(=O)O)NC(=O)C(CC(N)=O)NC(=O)CNC(=O)C(C(OC)C(=O)O)NC(=O)C(CCCCN)NC(=O)C(CC(=O)O)NC(=O)C(C)NC(=O)CN(C)C(=O)C(NC(=O)C(NC(=O)C(CCC(=O)O)NC(=O)C(Cc2c[nH]c3ccccc23)NC(=O)CCCCCCC(C)C)C(O)C(N)=O)C(C)OC1=O (stereo not drawn) [Component A54145A] (X2-WE[ξAsn(3ξ-OH)]T[Sar]ADK[ξAsp(3ξ-OMe)]GNEI; ester 4-C; configuration not given here),Feed/Gain Ratio,"[1]; Table XII, 20 g/ton",1.546
same,Weight Gain Amt.,"[1]; Table XII, 20 g/ton in feed, chicks 7-14 days of age",168 g
same,Feed/Gain % Impr.,[1]; [15],11.0%
same,Weight Gain % Impr.,[1]; [15],26.3%
same,weight gains in chickens (in words),[1]; chickens,increased weight gains
same,MIC,[2],4 µg/mL
same,MIC,[3],2 µg/mL
same,MIC,[4],64 µg/mL
same,MIC,[5],8 µg/mL
same,MIC,[6],4 µg/mL
same,MIC,[7],16 µg/mL
same,MIC,[8],8 µg/mL
same,MIC,[9],8 µg/mL
same,MIC,[10],8 µg/mL
same,MIC,[11],8 µg/mL
same,stimulation of in vitro activity by Ca++,[12],about 100 times
same,stimulation of in vitro activity by Ca++,[13],about 100 times
same,ED50 Value,Staphylococcus aureus,3.3 mg/kg × 2
same,ED50 Value,Streptococcus pyogenes; doses given 1 and 4 hours postinfection,2.4 mg/kg × 2
same,"ED50 Value, individual values of two tests",Streptococcus pyogenes; individual tests behind the average,1.6 mg/kg × 2 and 3.1 mg/kg × 2
same,feed/gain ratio in pigs (in words),[14],improved the feed/gain ratio
